Test results taken from patent US10766899B2, “Methods for preparing substituted imidazo[4,5-b]pyrazines” (Cytokinetics, Inc., priority 2006, dated 2020).
Several values for one entry are separate records, joined by “and”; a condition that tells them apart may be missing. Equal entries are not always repeated.

Test system: SKM MF
Test: SKM MF AC1.4: ATPase of skeletal sarcomeric proteins (actin, tropomyosin, troponin complex, myosin), PK/LDH coupled enzyme system
Assay type: biochemical
Conditions: screen at pCa=6.5, † mean value, ‡ median value
Method: For example, test compounds can be assayed in a highly parallel fashion by using multiwell plates by placing the compounds either individually in wells or testing them in mixtures. Assay components including the target protein complex, coupling enzymes and substrates, and ATP can then be added to the wells and the absorbance or fluorescence of each well of the plate can be measured with a plate reader.
In some embodiments, the method uses a 384 well plate format and a 25 μL reaction volume. A pyruvate kinase/lactate dehydrogenase coupled enzyme system (Huang T G and Hackney D D. (1994) J Biol Chem 269(23):16493-501) can be used to measure the rate of ATP hydrolysis in each well. As will be appreciated by those in the art, the assay components are added in buffers and reagents. The incubation periods can be optimized to give adequate detection signals over the background. The assay can be done in real time giving the kinetics of ATP hydrolysis which increases the signal to noise ratio of the assay.
Actin was purified by first preparing an ether powder of cardiac muscle (Zot H G and Potter J D. (1981) Preparative Biochemistry 11:381-395) as described below. Subsequently, actin was cycled between the filamentous and soluble state through rounds of centrifugation and dialysis (Spudich J A and Watt S. (1971) J. Biol. Chem. 246:4866-4871). It was stored in the filamentous state at 4° C.
Tropomyosin was extracted from the ether powder and separated from the other proteins based on pH dependent precipitations followed by successive ammonium sulfate cuts at 53% and 65% (Smillie L B. (1981) Methods Enzymol 85 Pt B:234-41). The troponins were isolated as an intact complex of TnC, TnT, and TnI. Ether powder is extracted in a high salt buffer. Successive ammonium sulfate cuts of 30% and 45% were done; the precipitate was solubilized by dialysis into a low salt buffer and then further purified on a DEAE Toyopearl column with a 25-350 mM KCl gradient.
Just prior to screening, the actin, tropomyosin, and troponin complex are mixed together in the desired ratio (e.g., 7:1:1) to achieve maximal calcium regulation of the actin filament. The screen is conducted at a pCa=6.5. This calcium concentration is in the physiological range during muscle contraction.
To measure the generation of ADP during the reaction, a pyruvate kinase/lactate dehydrogenase/NADH coupled enzyme system (PK/LDH) is added to the actin. The myosin is kept separately. The plates are read in real time so that kinetic curves are obtained. These compounds are in DMSO and were already spotted onto the bottoms of 384 well plates at 10 to 40 μg/ml final concentration.
• 1. Obtain ˜1000 g skeletal muscle, such as rabbit skeletal muscle. • 2. Grind twice; extract with 2 L solution A for 15 min while stirring; add 4 L cold H2O, filter through gauze; dilute with cold H2O to ionic strength of 0.04, (about 10-fold); let settle for 3 h; collect precipitate at 7,000 rpm in GSA rotor for 15 min. • 3. Disperse pellet in 220 ml solution B; dialyze overnight against 6 L solution C; slowly add ˜400 ml equal volume cold distilled H2O; stir for 30 min; centrifuge at 10,000 rpm for 10 min in GSA rotor. • 4. Centrifuge supernatant at 19,000 rpm for 1 h. • 5. Dilute supernatant to ionic strength of 0.04 (˜8-fold); let myosin settle overnight; collect about 5-6 L fluffy myosin precipitate by centrifuging at 10,000 rpm for 10 min in GSA rotor. • 6. Resuspend pellet in minimal volume of solution G; dialyze overnight against 2 L solution D; centrifuge at 19,000 rpm for 2 h, in cellulose nitrate tubes; puncture tubes and separate myosin from fat and insoluble pellet. • 7. Dilute supernatant to 5-10 mg/ml and dialyze against solution E extensively, load onto DEAE-sephadex column. • 8. […]

SMILES | SKM MF AC1.4 | also measured
CCC(CC)n1c(O)nc2ncc(N(C)C)nc21 [6-(dimethylamino)-1-(pentan-3-yl)-1H-imidazo[4,5-b]pyrazin-2-ol] | 2.2 µM and 2.79 µM | –
CCC(CC)n1c(O)nc2ncc(SC)nc21 [6-(methylthio)-1-(pentan-3-yl)-1H-imidazo[4,5-b]pyrazin-2-ol] | 0.4 µM | –
CCC(CN1CCN(S(C)(=O)=O)CC1)n1c(O)nc2ncc(Br)nc21 (centres unmarked) [6-bromo-1-(1-(4-(methylsulfonyl)piperazin-1-yl)butan-2-yl)-1H-imidazo[4,5-b]pyrazin-2-ol] | 3.2^† μM | –
CCC(CN1CCN(C)CC1)n1c(O)nc2ncc(Br)nc21 (centres unmarked) [6-bromo-1-(1-(4-methylpiperazin-1-yl)butan-2-yl)-1H-imidazo[4,5-b]pyrazin-2-ol] | 14.9 µM | –
CCC(CN(C)C)n1c(O)nc2ncc(Br)nc21 (centres unmarked) [6-bromo-1-(1-(dimethylamino)butan-2-yl)-1H-imidazo[4,5-b]pyrazin-2-ol] | 43.8 µM | –
CCC(CNC)n1c(O)nc2ncc(Br)nc21 (centres unmarked) [6-bromo-1-(1-(methylamino)butan-2-yl)-1H-imidazo[4,5-b]pyrazin-2-ol] | 45.7 µM | –
CCC(COC)n1c(O)nc2ncc(Br)nc21 (centres unmarked) [6-bromo-1-(1-methoxybutan-2-yl)-1H-imidazo[4,5-b]pyrazin-2-ol] | 4.9 µM | –
CC(C)(CN1CCOCC1)n1c(O)nc2ncc(Br)nc21 [6-bromo-1-(2-methyl-1-morpholinopropan-2-yl)-1H-imidazo[4,5-b]pyrazin-2-ol] | 16.4^‡ μM | SKM MF AC1.4 (listed as 1-(1,1-dimethyl-2-morpholin-4-ylethyl)-6-bromoimidazo[4,5-b]pyrazin-2-ol): 19.11 µM; SKM MF AC1.4 (listed as 6-bromo-1-(2-methyl-1-morpholinopropan-2-yl)-1H-imidazo[4,5-b]pyrazin-2(3H)-one): 16.4^‡ μM
CCC(CC)n1c(O)nc2ncc(Br)nc21 [6-bromo-1-(pentan-3-yl)-1H-imidazo[4,5-b]pyrazin-2-ol] | 0.25 µM | –
Oc1nc2ncc(Br)nc2n1C1CCCCC1 [6-bromo-1-cyclohexyl-1H-imidazo[4,5-b]pyrazin-2-ol] | 10.4 µM | –
CC(C)n1c(O)nc2ncc(Br)nc21 [6-bromo-1-isopropyl-1H-imidazo[4,5-b]pyrazin-2-ol] | 6.0 µM | –
CC(C)(C)n1c(O)nc2ncc(Br)nc21 [6-bromo-1-tert-butyl-1H-imidazo[4,5-b]pyrazin-2-ol] | 0.8 µM | –
CCC(CC)n1c(O)nc2ncc(Cl)nc21 [6-chloro-1-(ethylpropyl)imidazo[4,5-b]pyrazin-2-ol] | 0.7 µM | –
CCC(CC)n1c(O)nc2ncc(C)nc21 [6-methyl-1-(pentan-3-yl)-1H-imidazo[4,5-b]pyrazin-2-ol] | 0.53 µM | –
C/C=C/c1cnc2nc(O)n(C(CC)CC)c2n1 [(E)-1-(pentan-3-yl)-6-(prop-1-enyl)-1H-imidazo[4,5-b]pyrazin-2-ol] | 0.4 µM | –
C/C=C/c1cnc2nc(O)n(C3CCCCC3)c2n1 [(E)-1-cyclohexyl-6-(prop-1-enyl)-1H-imidazo[4,5-b]pyrazin-2-ol] | 6.1 µM | –
C/C=C/c1cnc2nc(O)n(C(C)C)c2n1 [(E)-1-isopropyl-6-(prop-1-enyl)-1H-imidazo[4,5-b]pyrazin-2-ol] | 7.1 µM | –
CC[C@H](CO)n1c(O)nc2ncc(Br)nc21 [(R)-6-bromo-1-(1-hydroxybutan-2-yl)-1H-imidazo[4,5-b]pyrazin-2-ol] | 1.1 µM | –
CC[C@H](CN1CCOCC1)n1c(O)nc2ncc(Br)nc21 [(R)-6-bromo-1-(1-morpholinobutan-2-yl)-1H-imidazo[4,5-b]pyrazin-2-ol] | 0.3 µM | –
C[C@H](CN1CCOCC1)n1c(O)nc2ncc(Br)nc21 [(R)-6-bromo-1-(1-morpholinopropan-2-yl)-1H-imidazo[4,5-b]pyrazin-2-ol] | 5.2^‡ μM | SKM MF AC1.4 (listed as 1-((1R)-1-methyl-2-morpholin-4-ylethyl)-6-bromoimidazo[4,5-b]pyrazin-2-ol): 5.19 µM; SKM MF AC1.4 (listed as (R)-6-bromo-1-(1-morpholinopropan-2-yl)-1H-imidazo[4,5-b]pyrazin-2(3H)-one): 5.2^‡ μM
CC[C@@H](C)n1c(O)nc2ncc(Br)nc21 [(R)-6-bromo-1-sec-butyl-1H-imidazo[4,5-b]pyrazin-2-ol] | 1.5 µM | –
CC[C@@H](CO)n1c(O)nc2ncc(Br)nc21 [(S)-6-bromo-1-(1-hydroxybutan-2-yl)-1H-imidazo[4,5-b]pyrazin-2-ol] | 19.1 µM | –
CC[C@@H](CN1CCOCC1)n1c(O)nc2ncc(Br)nc21 [(S)-6-bromo-1-(1-morpholinobutan-2-yl)-1H-imidazo[4,5-b]pyrazin-2-ol] | >49 µM | –
C[C@@H](CN1CCOCC1)n1c(O)nc2ncc(Br)nc21 [(S)-6-bromo-1-(1-morpholinopropan-2-yl)-1H-imidazo[4,5-b]pyrazin-2-ol] | >49 µM | –
CC[C@H](C)n1c(O)nc2ncc(Br)nc21 [(S)-6-bromo-1-sec-butyl-1H-imidazo[4,5-b]pyrazin-2-ol] | 0.8 µM | –
C/C=C/c1cnc2nc(O)n([C@@H](C)c3ccccc3)c2n1 [(S,E)-1-(1-phenylethyl)-6-(prop-1-enyl)-1H-imidazo[4,5-b]pyrazin-2-ol] | 1.6 µM | –

Now from value to compound, other results behind:

SKM MF AC1.4 | SMILES | also measured
2.2^‡ μM | CCC(CC)n1c(O)nc2ncc(OC)nc21 [6-methoxy-1-(pentan-3-yl)-1H-imidazo[4,5-b]pyrazin-2-ol] | SKM MF AC1.4 (listed as 1-(ethylpropyl)-6-methoxyimidazo[4,5-b]pyrazin-2-ol): 2.20 µM; SKM MF AC1.4 (listed as 6-methoxy-1-(pentan-3-yl)-1H-imidazo[4,5-b]pyrazin-2(3H)-one): 2.2^‡ μM
2.9 µM | CSc1cnc2nc(O)n([C@H](C)c3ccccc3)c2n1 [(R)-6-(methylthio)-1-(1-phenylethyl)-1H-imidazo[4,5-b]pyrazin-2-ol] | –
2.4 µM | C[C@H](c1ccccc1)n1c(O)nc2ncc(Br)nc21 [(R)-6-bromo-1-(1-phenylethyl)-1H-imidazo[4,5-b]pyrazin-2-ol] | –
17.4 µM | CCc1cnc2nc(O)n([C@@H](C)c3ccccc3)c2n1 [(S)-1-(1-phenylethyl)-6-ethyl-1H-imidazo[4,5-b]pyrazin-2-ol] | –
29.7 µM | CCCc1cnc2nc(O)n([C@@H](C)c3ccccc3)c2n1 [(S)-1-(1-phenylethyl)-6-propyl-1H-imidazo[4,5-b]pyrazin-2-ol] | –
2.4 µM | C=Cc1cnc2nc(O)n([C@@H](C)c3ccccc3)c2n1 [(S)-1-(1-phenylethyl)-6-vinyl-1H-imidazo[4,5-b]pyrazin-2-ol] | –
2.7 µM | CC(C)=Cc1cnc2nc(O)n([C@@H](C)c3ccccc3)c2n1 [(S)-6-(2-methylprop-1-enyl)-1-(1-phenylethyl)-1H-imidazo[4,5-b]pyrazin-2-ol] | –
1.1 µM | CSc1cnc2nc(O)n([C@@H](C)c3ccccc3)c2n1 [(S)-6-(methylthio)-1-(1-phenylethyl)-1H-imidazo[4,5-b]pyrazin-2-ol] | –
0.45 µM | C[C@@H](c1ccccc1)n1c(O)nc2ncc(Br)nc21 [(S)-6-bromo-1-(1-phenylethyl)-1H-imidazo[4,5-b]pyrazin-2-ol] | –
31.0 µM | C[C@@H](c1ccccc1)n1c(O)nc2ncc(C3=CCCCC3)nc21 [(S)-6-cyclohexenyl-1-(1-phenylethyl)-1H-imidazo[4,5-b]pyrazin-2-ol] | –
10.6 µM | CCOc1cnc2nc(O)n([C@@H](C)c3ccccc3)c2n1 [(S)-6-ethoxy-1-(1-phenylethyl)-1H-imidazo[4,5-b]pyrazin-2-ol] | –
8.8 µM | COc1cnc2nc(O)n([C@@H](C)c3ccccc3)c2n1 [(S)-6-methoxy-1-(1-phenylethyl)-1H-imidazo[4,5-b]pyrazin-2-ol] | –
